{"source": "patent US12139492B2", "about": "(Endotarget Inc., priority 2021, dated 2024)", "key": {"JeKo-1 cells": {"system": "JeKo-1 cells", "test": "Antiproliferative effect, MTS cell viability assay, JeKo-1 cells", "assay_type": "cell-based", "conditions": "Homo sapiens; JeKo-1 mantle cell lymphoma cells; read-out: IC50 (anti-proliferation) JeKO-1 cells", "outline": "(§1)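 MTS read-out, A490 of formazan from metabolically active cells; compound 0–10 μM (0, 0.001, 0.01, 0.1, 1, 10 μM), 72 h exposure.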"}, "BTK [1]": {"target": "T1, BTK (Homo sapiens, UniProt Q06187)", "T1 sequence (Q06187 whole entry)": "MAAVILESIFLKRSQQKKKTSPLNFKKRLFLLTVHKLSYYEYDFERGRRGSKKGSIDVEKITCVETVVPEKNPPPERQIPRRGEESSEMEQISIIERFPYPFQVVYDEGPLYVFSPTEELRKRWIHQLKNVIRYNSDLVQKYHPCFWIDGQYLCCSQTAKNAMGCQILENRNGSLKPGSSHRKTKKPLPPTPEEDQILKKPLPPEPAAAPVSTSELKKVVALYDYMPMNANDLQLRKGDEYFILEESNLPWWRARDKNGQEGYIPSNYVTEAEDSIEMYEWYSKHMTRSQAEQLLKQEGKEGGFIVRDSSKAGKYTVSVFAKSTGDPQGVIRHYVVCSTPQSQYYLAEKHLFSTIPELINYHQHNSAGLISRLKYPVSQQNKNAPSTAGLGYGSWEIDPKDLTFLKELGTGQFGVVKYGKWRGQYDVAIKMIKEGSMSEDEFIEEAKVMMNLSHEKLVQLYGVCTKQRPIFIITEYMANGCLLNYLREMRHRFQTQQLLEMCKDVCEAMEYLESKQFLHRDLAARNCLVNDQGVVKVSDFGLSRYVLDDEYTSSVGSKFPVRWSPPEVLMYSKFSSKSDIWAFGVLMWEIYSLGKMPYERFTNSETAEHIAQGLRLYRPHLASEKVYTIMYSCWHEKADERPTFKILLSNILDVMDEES", "test": "Degradation of BTK protein in Namalwa cells (Western blot; DC50, Dmax)", "conditions": "Namalwa B lymphocyte cells, Western blot; for degradation of BTK protein: various concentrations, 24 hours"}, "BTK [2]": {"target": "T1, BTK", "test": "BTK degradation, DC50 and Dmax of Table 1 (cell line not given)", "assay_type": "cell-based", "set-up": "endogenous in cells", "conditions": "for DC50: concentration giving 50% reduction of BTK expression level"}, "Mino cells": {"system": "Mino cells", "test": "Antiproliferative effect, MTS cell viability assay, Mino cells", "assay_type": "cell-based", "conditions": "Homo sapiens, MINO, Mino mantle cell lymphoma cells; read-out: IC50 (anti-proliferation) Mino cells", "outline": "as §1"}}, "data": [{"smiles": "Nc1ncnc2c1c(-c1ccc(Oc3ccccc3)cc1)nn2[C@@H]1CCCN(CC2CCN(C(=O)N3CCC(C4CCN(c5ccc6c(c5)C(=O)N(C5CCC(=O)NC5=O)C6=O)CC4)CC3)CC2)C1", "note": "(stereo partly drawn) [Compound 29, 5-(1′-(4-(((R)-3-(4-amino-3-(4-phenoxyphenyl)-1H-pyrazolo(3,4-d)pyrimidin-1-yl)piperidin-1-yl)methyl)piperidine-1-carbonyl)-(4,4′-bipiperidin)-1-yl)-2-(2,6-dioxopiperidin-3-yl)isoindoline-1,3-dione]", "values": [{"measurement": "IC50", "setting": "JeKo-1 cells", "value": "1000 to 10000", "unit": "nM"}, {"measurement": "degradation of BTK protein at 10^−6 M", "setting": "BTK [1]", "value": "degradation"}, {"measurement": "Dmax", "setting": "BTK [2]", "value": "> 90", "unit": "%"}, {"measurement": "DC50", "setting": "BTK [2]", "value": "> 50", "unit": "nM"}, {"measurement": "IC50", "setting": "Mino cells", "value": "1000 to 10000", "unit": "nM"}]}, {"smiles": "Nc1ncnc2c1c(-c1ccc(Oc3ccccc3)cc1)nn2[C@@H]1CCCN(C(=O)N2CCC(C3CCN(c4ccc5c(c4)C(=O)N(C4CCC(=O)NC4=O)C5=O)CC3)CC2)C1", "note": "(stereo partly drawn) [Compound 49, 5-(1′-((R)-3-(4-amino-3-(4-phenoxyphenyl)-1H-pyrazolo(3,4-d)pyrimidin-1-yl)piperidine-1-carbonyl)-(4,4′-bipiperidin)-1-yl)-2-(2,6-dioxopiperidin-3-yl)isoindoline-1,3-dione]", "values": [{"measurement": "IC50", "setting": "JeKo-1 cells", "value": "1000 to 10000", "unit": "nM"}, {"measurement": "degradation of BTK protein at 10^−6 M", "setting": "BTK [1]", "value": "degradation"}, {"measurement": "Dmax", "setting": "BTK [2]", "value": "> 90", "unit": "%"}, {"measurement": "DC50", "setting": "BTK [2]", "value": "10 to 50", "unit": "nM"}, {"measurement": "IC50", "setting": "Mino cells", "value": "1000 to 10000", "unit": "nM"}]}, {"smiles": "Nc1ncnc2c1c(-c1ccc(Oc3ccccc3)cc1)nn2[C@@H]1CCCN(C2CCN(C(=O)N3CCC(CCN4CCN(c5ccc6c(c5)C(=O)N(C5CCC(=O)NC5=O)C6=O)CC4)CC3)CC2)C1", "note": "(stereo partly drawn) [Compound 181, 5-(4-(2-(1-((R)-3-(4-amino-3-(4-phenoxyphenyl)-1H-pyrazolo(3,4-d)pyrimidin-1-yl)-(1,4′-bipiperidine)-1′-carbonyl)piperidin-4-yl)ethyl)piperazin-1-yl)-2-(2,6-dioxopiperidin-3-yl)isoindoline-1,3-dione]", "values": [{"measurement": "IC50", "setting": "JeKo-1 cells", "value": "1000 to 10000", "unit": "nM"}, {"measurement": "degradation of BTK protein at 10^−6 M", "setting": "BTK [1]", "value": "degradation"}, {"measurement": "degradation of BTK protein", "setting": "BTK [1]", "value": "dose-dependent degradation"}, {"measurement": "Dmax", "setting": "BTK [2]", "value": "> 75", "unit": "%"}, {"measurement": "DC50", "setting": "BTK [2]", "value": "10 to 50", "unit": "nM"}, {"measurement": "IC50", "setting": "Mino cells", "value": "1000 to 10000", "unit": "nM"}]}, {"smiles": "Nc1ncnc2c1c(-c1ccc(Oc3ccccc3)cc1)nn2[C@@H]1CCCN(C2CCN(C(=O)N3CCC(CN4CCN(c5ccc6c(c5)C(=O)N(C5CCC(=O)NC5=O)C6=O)CC4)CC3)CC2)C1", "note": "(stereo partly drawn) [Compound 169, 5-(4-((1-((R)-3-(4-amino-3-(4-phenoxyphenyl)-1H-pyrazolo(3,4-d)pyrimidin-1-yl)-(1,4′-bipiperidine)-1′-carbonyl)piperidin-4-yl)methyl)piperazin-1-yl)-2-(2,6-dioxopiperidin-3-yl)isoindoline-1,3-dione]", "values": [{"measurement": "IC50", "setting": "JeKo-1 cells", "value": "< 1000", "unit": "nM"}, {"measurement": "degradation of BTK protein at 10^−6 M", "setting": "BTK [1]", "value": "degradation"}, {"measurement": "degradation of BTK protein", "setting": "BTK [1]", "value": "dose-dependent degradation"}, {"measurement": "Dmax", "setting": "BTK [2]", "value": "> 90", "unit": "%"}, {"measurement": "DC50", "setting": "BTK [2]", "value": "10 to 50", "unit": "nM"}, {"measurement": "IC50", "setting": "Mino cells", "value": "1000 to 10000", "unit": "nM"}]}, {"smiles": "Nc1ncnc2c1c(-c1ccc(Oc3ccccc3)cc1)nn2C1CCN(C(=O)N2CCN(c3ccc4c(c3)C(=O)N(C3CCC(=O)NC3=O)C4=O)CC2)CC1", "note": "(stereo not shown) [Compound 75, 5-(4-(4-(4-amino-3-(4-phenoxyphenyl)-1H-pyrazolo(3,4-d)pyrimidin-1-yl)piperidine-1-carbonyl)piperazin-1-yl)-2-(2,6-dioxopiperidin-3-yl)isoindoline-1,3-dione]", "values": [{"measurement": "IC50", "setting": "JeKo-1 cells", "value": "> 10000", "unit": "nM"}, {"measurement": "degradation of BTK protein at 10^−6 M", "setting": "BTK [1]", "value": "degradation"}, {"measurement": "Dmax", "setting": "BTK [2]", "value": "> 50", "unit": "%"}, {"measurement": "DC50", "setting": "BTK [2]", "value": "> 50", "unit": "nM"}, {"measurement": "IC50", "setting": "Mino cells", "value": "> 10000", "unit": "nM"}]}, {"smiles": "Nc1ncnc2c1c(-c1ccc(Oc3ccccc3)cc1)nn2[C@@H]1CCCN(C2CCN(C(=O)N3CCC(C4CCN(c5ccc6c(c5)C(=O)N(C5CCC(=O)NC5=O)C6=O)CC4)CC3)CC2)C1", "note": "(stereo partly drawn) [Compound 163, 5-(1′-((R)-3-(4-amino-3-(4-phenoxyphenyl)-1H-pyrazolo(3,4-d)pyrimidin-1-yl)-(1,4′-bipiperidine)-1′-carbonyl)-(4,4′-bipiperidin)-1-yl)-2-(2,6-dioxopiperidin-3-yl)isoindoline-1,3-dione]", "values": [{"measurement": "IC50", "setting": "JeKo-1 cells", "value": "> 10000", "unit": "nM"}, {"measurement": "degradation of BTK protein at 10^−6 M", "setting": "BTK [1]", "value": "degradation"}, {"measurement": "degradation of BTK protein", "setting": "BTK [1]", "value": "dose-dependent degradation"}, {"measurement": "Dmax", "setting": "BTK [2]", "value": "> 75", "unit": "%"}, {"measurement": "DC50", "setting": "BTK [2]", "value": "> 50", "unit": "nM"}, {"measurement": "IC50", "setting": "Mino cells", "value": "1000 to 10000", "unit": "nM"}]}, {"smiles": "Nc1ncnc2c1c(-c1ccc(Oc3ccccc3)cc1)nn2[C@@H]1CCCN(CC2CCN(C(=O)N3CCC(CCN4CCN(c5ccc6c(c5)C(=O)N(C5CCC(=O)NC5=O)C6=O)CC4)CC3)CC2)C1", "note": "(stereo partly drawn) [Compound 33, 5-(4-(2-(1-(4-(((R)-3-(4-amino-3-(4-phenoxyphenyl)-1H-pyrazolo(3,4-d)pyrimidin-1-yl)piperidin-1-yl)methyl)piperidine-1-carbonyl)piperidin-4-yl)ethyl)piperazin-1-yl)-2-(2,6-dioxopiperidin-3-yl)isoindoline-1,3-dione]", "values": [{"measurement": "IC50", "setting": "JeKo-1 cells", "value": "1000 to 10000", "unit": "nM"}, {"measurement": "degradation of BTK protein at 10^−6 M", "setting": "BTK [1]", "value": "degradation"}, {"measurement": "degradation of BTK protein", "setting": "BTK [1]", "value": "dose-dependent degradation"}, {"measurement": "Dmax", "setting": "BTK [2]", "value": "> 90", "unit": "%"}, {"measurement": "DC50", "setting": "BTK [2]", "value": "> 50", "unit": "nM"}, {"measurement": "IC50", "setting": "Mino cells", "value": "1000 to 10000", "unit": "nM"}]}, {"smiles": "Nc1ncnc2c1c(-c1ccc(Oc3ccccc3)cc1)nn2[C@@H]1CCCN(C2CCN(CCC3CCN(c4ccc5c(c4)C(=O)N(C4CCC(=O)NC4=O)C5=O)CC3)CC2)C1", "note": "(stereo partly drawn) [Compound 145, 5-(4-(2-((R)-3-(4-amino-3-(4-phenoxyphenyl)-1H-pyrazolo[3,4-d]pyrimidin-1-yl)-[1,4′-bipiperidin]-1′-yl)ethyl)piperidin-1-yl)-2-(2,6-dioxopiperidin-3-yl)isoindoline-1,3-dione]", "values": [{"measurement": "IC50", "setting": "JeKo-1 cells", "value": "> 10000", "unit": "nM"}, {"measurement": "Dmax", "setting": "BTK [2]", "value": "> 75", "unit": "%"}, {"measurement": "DC50", "setting": "BTK [2]", "value": "> 50", "unit": "nM"}, {"measurement": "IC50", "setting": "Mino cells", "value": "> 10000", "unit": "nM"}]}, {"smiles": "Nc1ncnc2c1c(-c1ccc(Oc3ccccc3)cc1)nn2C1CCN(CC2CCN(C(=O)N3CCC(CCN4CCN(c5ccc6c(c5)CN(C5CCC(=O)NC5=O)C6=O)CC4)CC3)CC2)CC1", "note": "(stereo not shown) [Compound 44, 3-(5-(4-(2-(1-(4-((4-(4-amino-3-(4-phenoxyphenyl)-1H-pyrazolo[3,4-d]pyrimidin-1-yl)piperidin-1-yl)methyl)piperidine-1-carbonyl)piperidin-4-yl)ethyl)piperazin-1-yl)-1-oxoisoindolin-2-yl)piperidine-2,6-dione]", "values": [{"measurement": "IC50", "setting": "JeKo-1 cells", "value": "1000 to 10000", "unit": "nM"}, {"measurement": "Dmax", "setting": "BTK [2]", "value": "> 90", "unit": "%"}, {"measurement": "DC50", "setting": "BTK [2]", "value": "10 to 50", "unit": "nM"}, {"measurement": "IC50", "setting": "Mino cells", "value": "1000 to 10000", "unit": "nM"}]}, {"smiles": "Nc1ncnc2c1c(-c1ccc(Oc3ccccc3)cc1)nn2C1CCN(C(=O)N2CCC(CCCN3CCC(c4ccc5c(c4)CN(C4CCC(=O)NC4=O)C5=O)CC3)CC2)CC1", "note": "(stereo not shown) [Compound 128, 3-(5-(1-(3-(1-(4-(4-amino-3-(4-phenoxyphenyl)-1H-pyrazolo[3,4-d]pyrimidin-1-yl)piperidine-1-carbonyl)piperidin-4-yl)propyl)piperidin-4-yl)-1-oxoisoindolin-2-yl)piperidine-2,6-dione]", "values": [{"measurement": "IC50", "setting": "JeKo-1 cells", "value": "> 10000", "unit": "nM"}, {"measurement": "Dmax", "setting": "BTK [2]", "value": "> 90", "unit": "%"}, {"measurement": "DC50", "setting": "BTK [2]", "value": "> 50", "unit": "nM"}, {"measurement": "IC50", "setting": "Mino cells", "value": "1000 to 10000", "unit": "nM"}]}, {"smiles": "Nc1ncnc2c1c(-c1ccc(Oc3ccccc3)cc1)nn2[C@@H]1CCCN(C2CCN(CC3CCN(c4ccc5c(c4)C(=O)N(C4CCC(=O)NC4=O)C5=O)CC3)CC2)C1", "note": "(stereo partly drawn) [Compound 143, 5-(4-(((R)-3-(4-amino-3-(4-phenoxyphenyl)-1H-pyrazolo[3,4-d]pyrimidin-1-yl)-[1,4′-bipiperidin]-1′-yl)methyl)piperidin-1-yl)-2-(2,6-dioxopiperidin-3-yl)isoindoline-1,3-dione]", "values": [{"measurement": "IC50", "setting": "JeKo-1 cells", "value": "> 10000", "unit": "nM"}, {"measurement": "Dmax", "setting": "BTK [2]", "value": "> 90", "unit": "%"}, {"measurement": "DC50", "setting": "BTK [2]", "value": "10 to 50", "unit": "nM"}, {"measurement": "IC50", "setting": "Mino cells", "value": "> 10000", "unit": "nM"}]}]}
